Measurements: ChEMBL document CHEMBL1909046, “DrugMatrix in vitro pharmacology data”

How the values were obtained:
[1] = DRUGMATRIX: Nicotinic Acetylcholine radioligand binding (ligand: [125I] Epibatidine); type: cell membranes, Membrane; settings: imr-32; Not Active = under 50% inhibition at 10 µM
[2] = DRUGMATRIX: Glutamate, Kainate radioligand binding (ligand: [3H] Kainic acid); type: cell membranes, Rattus norvegicus, Wistar, Brain, Membrane; settings: Not Active = under 50% inhibition at 10 µM
[3] = DRUGMATRIX: GABAA, Chloride Channel, TBOB radioligand binding (ligand: [3H] TBOB); type: cell membranes, Rattus norvegicus, Wistar, Cerebral cortex, Membrane; settings: Not Active = under 50% inhibition at 10 µM
Substance-K receptor = target: T1, Substance-K receptor (Homo sapiens, UniProt P21452); type: cell membranes, CHO, Membrane; settings: for Ki: read-out: Ki; for all read-outs here: in other assays of this panel Not Active means under 50% inhibition at 10 µM
T1 sequence (P21452 whole entry): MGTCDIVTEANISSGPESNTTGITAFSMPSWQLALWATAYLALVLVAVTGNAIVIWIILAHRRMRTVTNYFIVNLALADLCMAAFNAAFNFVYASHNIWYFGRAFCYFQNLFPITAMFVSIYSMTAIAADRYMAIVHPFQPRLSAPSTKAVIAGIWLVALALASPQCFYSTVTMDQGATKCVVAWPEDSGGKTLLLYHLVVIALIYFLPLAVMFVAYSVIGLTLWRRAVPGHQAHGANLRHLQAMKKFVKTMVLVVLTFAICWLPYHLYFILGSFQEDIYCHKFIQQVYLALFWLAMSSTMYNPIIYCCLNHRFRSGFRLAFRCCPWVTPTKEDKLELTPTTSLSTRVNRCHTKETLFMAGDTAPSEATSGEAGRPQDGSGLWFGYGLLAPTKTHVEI

[4] = target: Beta-2 adrenergic receptor (Homo sapiens, UniProt P07550); experiment: DRUGMATRIX: Adrenergic beta2 radioligand binding (ligand: [3H] CGP-12177); type: cell membranes, Membrane; settings: cho; Not Active = under 50% inhibition at 10 µM
Beta-2 adrenergic receptor, sequence (P07550 whole entry): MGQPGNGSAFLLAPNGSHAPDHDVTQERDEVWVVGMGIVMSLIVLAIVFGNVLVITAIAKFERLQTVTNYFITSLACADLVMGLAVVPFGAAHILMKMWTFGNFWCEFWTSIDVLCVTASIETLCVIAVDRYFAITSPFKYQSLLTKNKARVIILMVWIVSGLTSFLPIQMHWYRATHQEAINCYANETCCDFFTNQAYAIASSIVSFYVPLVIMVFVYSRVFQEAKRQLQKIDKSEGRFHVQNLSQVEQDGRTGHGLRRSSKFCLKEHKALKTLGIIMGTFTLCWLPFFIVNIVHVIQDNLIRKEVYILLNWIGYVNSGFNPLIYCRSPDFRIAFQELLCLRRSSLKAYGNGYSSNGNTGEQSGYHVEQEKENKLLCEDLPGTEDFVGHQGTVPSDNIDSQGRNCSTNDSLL

[5] = target: T2, Vasoactive intestinal polypeptide receptor 1 (Homo sapiens, UniProt P32241); type: cell membranes, Membrane; settings: ht-29; note: in other assays of this panel Not Active means under 50% inhibition at 10 µM
T2 sequence (P32241 whole entry): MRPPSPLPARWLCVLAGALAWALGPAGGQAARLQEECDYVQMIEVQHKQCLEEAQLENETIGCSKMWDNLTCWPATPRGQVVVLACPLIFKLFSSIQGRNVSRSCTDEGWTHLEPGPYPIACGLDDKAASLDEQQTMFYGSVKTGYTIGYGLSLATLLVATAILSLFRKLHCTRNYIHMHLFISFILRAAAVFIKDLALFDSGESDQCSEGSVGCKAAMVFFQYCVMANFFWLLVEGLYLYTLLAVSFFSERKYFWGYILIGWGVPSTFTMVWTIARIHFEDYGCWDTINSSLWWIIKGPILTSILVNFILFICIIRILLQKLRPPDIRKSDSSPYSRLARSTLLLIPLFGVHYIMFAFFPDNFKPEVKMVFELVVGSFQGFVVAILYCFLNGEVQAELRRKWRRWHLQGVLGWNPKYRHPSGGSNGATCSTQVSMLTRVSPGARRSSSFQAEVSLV

[6] = target: T3, Alpha-2C adrenergic receptor (Homo sapiens, UniProt P18825); experiment: DRUGMATRIX: Adrenergic Alpha-2C radioligand binding (ligand: [3H] MK-912); type: cell membranes, Sf9, Membrane
T3 sequence (P18825 whole entry): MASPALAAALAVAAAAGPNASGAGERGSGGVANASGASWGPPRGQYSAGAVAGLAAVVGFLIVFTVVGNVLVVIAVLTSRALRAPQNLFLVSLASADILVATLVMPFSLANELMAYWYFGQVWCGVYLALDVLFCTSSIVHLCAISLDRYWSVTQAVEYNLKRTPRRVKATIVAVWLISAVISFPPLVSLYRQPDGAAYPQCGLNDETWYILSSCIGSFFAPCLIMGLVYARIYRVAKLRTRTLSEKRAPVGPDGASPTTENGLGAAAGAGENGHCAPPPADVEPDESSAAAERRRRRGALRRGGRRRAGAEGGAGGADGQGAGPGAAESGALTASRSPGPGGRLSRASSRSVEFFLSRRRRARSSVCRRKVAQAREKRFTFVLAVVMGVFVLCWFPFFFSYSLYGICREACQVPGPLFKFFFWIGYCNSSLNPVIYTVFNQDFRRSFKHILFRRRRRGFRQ

[7] = DRUGMATRIX: Phosphodiesterase PDE4 enzyme inhibition (substrate: [3H]cAMP + cAMP); settings: u-937; Not Active = under 50% inhibition at 10 µM
[8] = target: Kappa-type opioid receptor (Homo sapiens, UniProt P41145); experiment: DRUGMATRIX: Opiate kappa (OP2, KOP) radioligand binding (ligand: [3H] Diprenorphine); type: cell membranes, HEK293, Membrane; settings: hek293; Not Active = under 50% inhibition at 10 µM
Kappa-type opioid receptor, sequence (P41145 whole entry): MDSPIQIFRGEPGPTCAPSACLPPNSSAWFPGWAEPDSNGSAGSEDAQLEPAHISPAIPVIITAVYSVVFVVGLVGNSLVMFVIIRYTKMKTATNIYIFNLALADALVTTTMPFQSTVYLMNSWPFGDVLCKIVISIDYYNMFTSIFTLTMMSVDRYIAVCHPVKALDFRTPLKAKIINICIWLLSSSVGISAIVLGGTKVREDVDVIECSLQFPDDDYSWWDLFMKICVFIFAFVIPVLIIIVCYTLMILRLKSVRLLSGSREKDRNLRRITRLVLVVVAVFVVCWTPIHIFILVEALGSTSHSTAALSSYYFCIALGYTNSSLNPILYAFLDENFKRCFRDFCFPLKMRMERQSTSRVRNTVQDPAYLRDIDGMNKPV

[9] = target: T4, C-C chemokine receptor type 4 (Homo sapiens, UniProt P51679); type: cell membranes, Membrane; settings: chem-1; note: in other assays of this panel Not Active means under 50% inhibition at 10 µM
T4 sequence (P51679 whole entry): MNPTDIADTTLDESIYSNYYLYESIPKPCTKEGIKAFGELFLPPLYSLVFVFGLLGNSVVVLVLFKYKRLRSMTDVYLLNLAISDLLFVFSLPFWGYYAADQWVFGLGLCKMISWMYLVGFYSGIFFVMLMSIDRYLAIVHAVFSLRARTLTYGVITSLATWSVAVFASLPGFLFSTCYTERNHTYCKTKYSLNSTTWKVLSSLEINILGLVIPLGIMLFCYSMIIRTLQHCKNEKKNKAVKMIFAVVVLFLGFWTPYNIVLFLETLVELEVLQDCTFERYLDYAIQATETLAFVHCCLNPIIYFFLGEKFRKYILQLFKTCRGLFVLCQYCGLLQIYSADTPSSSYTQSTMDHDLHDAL

[10] = DRUGMATRIX: GABAA, Flunitrazepam, Central radioligand binding (ligand: [3H] Flunitrazepam); type: cell membranes, Rattus norvegicus, Wistar, Brain, Membrane; settings: Not Active = under 50% inhibition at 10 µM

Row | Compound | IC50 [1] | Ki [1] | IC50 [2] | Ki [2] | IC50 [3] | Ki [3] | IC50 (Substance-K receptor; cho) | IC50 [4] | IC50 [5] | IC50 ([6]; sf9) | IC50 [7] | Ki [7] | IC50 [8] | IC50 [9] | IC50 [10] | Ki [10] | IC50 ([6]; read-out: IC50) [nM] | Ki ([6]; read-out: Ki) [nM] | IC50 (Substance-K receptor; read-out: IC50) [nM] | Ki (Substance-K receptor) [nM]
1 | CC1=C(CC(=O)O)c2cc(F)ccc2/C1=C\c1ccc([S+](C)[O-])cc1 (centres undefined) | Not Active | Not Active | Not Active | Not Active | Not Active | Not Active | Not Active | Not Active | Not Active | Not Active | Not Active | Not Active | Not Active | Not Active | Not Active | Not Active | – | – | – | –
2 | N[C@H](CSC(=S)NCc1ccccc1)C(=O)O | Not Active | Not Active | Not Active | Not Active | Not Active | Not Active | Not Active | Not Active | Not Active | Not Active | Not Active | Not Active | Not Active | Not Active | Not Active | Not Active | – | – | – | –
3 | CC(=O)N[C@@H]1[C@H](Oc2c3cc4cc2Oc2ccc(cc2Cl)[C@@H](O[C@@H]2O[C@@H](CO)[C@@H](O)[C@H](O)[C@@H]2NC(C)=O)[C@@H]2NC(=O)[C@H](NC(=O)[C@@H]4NC(=O)[C@H]4NC(=O)[C@@H](Cc5ccc(c(Cl)c5)O3)NC(=O)[C@H](N)c3ccc(O)c(c3)Oc3cc(O)cc4c3)c3ccc(O)c(c3)-c3c(O[C@H]4O[C@H](CO)[C@@H](O)[C@@H](O)[C@@H]4O)cc(O)cc3[C@@H](C(=O)O)NC2=O)O[C@@H](CO)[C@@H](O)[C@@H]1O | Not Active | Not Active | Not Active | Not Active | Not Active | Not Active | Not Active | Not Active | Not Active | Not Active | Not Active | Not Active | Not Active | Not Active | Not Active | Not Active | – | – | – | –
4 | Clc1ccc2c(c1)C(N1CCNCC1)=Nc1ccccc1O2 [AMOXAPINE] | – | – | – | – | – | – | Not Active | Not Active | Not Active | – | – | – | Not Active | Not Active | – | – | – | – | – | –
5 | COc1cc2c(c(OC)c1OC)-c1ccc(OC)c(=O)cc1[C@@H](NC(C)=O)CC2 [COLCHICINE] | – | – | – | – | – | – | Not Active | Not Active | Not Active | Not Active | – | – | – | Not Active | – | – | – | – | – | –
6 | CN1CCC(=C2c3ccccc3C=Cc3ccccc32)CC1 [CYPROHEPTADINE] | – | – | – | – | – | – | Not Active | Not Active | Not Active | – | – | – | Not Active | Not Active | – | – | 1270 | 185 | – | –
7 | CC/C(=C(/CC)c1ccc(O)cc1)c1ccc(O)cc1 [DIETHYLSTILBESTROL] | – | – | – | – | – | – | – | Not Active | Not Active | – | – | – | – | Not Active | – | – | – | – | 9550 | 3180
8 | CC(=O)N1CCN(c2ccc(OCC3COC(Cn4ccnc4)(c4ccc(Cl)cc4Cl)O3)cc2)CC1 (centres undefined) [KETOCONAZOLE] | Not Active | Not Active | Not Active | Not Active | Not Active | Not Active | – | Not Active | Not Active | Not Active | Not Active | Not Active | Not Active | Not Active | Not Active | Not Active | – | – | 17200 | 5750
9 | C=CCN1CC[C@]23c4c5ccc(O)c4O[C@H]2C(=O)CC[C@@]3(O)[C@H]1C5 [NALOXONE] | – | – | – | – | – | – | Not Active | Not Active | Not Active | Not Active | – | – | – | Not Active | – | – | – | – | – | –
10 | COCCOC(=O)C1=C(C)NC(C)=C(C(=O)OC(C)C)C1c1cccc([N+](=O)[O-])c1 (centres undefined) [NIMODIPINE] | Not Active | Not Active | Not Active | Not Active | Not Active | Not Active | Not Active | Not Active | Not Active | Not Active | Not Active | Not Active | Not Active | Not Active | Not Active | Not Active | – | – | – | –
11 | CC(C)NCC(O)COc1cccc2ccccc12 (centres undefined) [PROPRANOLOL] | – | – | – | – | – | – | Not Active | – | Not Active | Not Active | – | – | Not Active | Not Active | – | – | – | – | – | –
12 | COCCCOc1ccnc(C[S+]([O-])c2nc3ccccc3[nH]2)c1C (centres undefined) [RABEPRAZOLE] | Not Active | Not Active | Not Active | Not Active | Not Active | Not Active | Not Active | Not Active | Not Active | Not Active | Not Active | Not Active | Not Active | Not Active | Not Active | Not Active | – | – | – | –
13 | O=C(c1ccc(OCCN2CCCCC2)cc1)c1c(-c2ccc(O)cc2)sc2cc(O)ccc12 [RALOXIFENE] | Not Active | Not Active | Not Active | Not Active | Not Active | Not Active | – | Not Active | Not Active | – | Not Active | Not Active | – | Not Active | Not Active | Not Active | – | – | 3990 | 1330
14 | CC(C)c1nc(CN(C)C(=O)N[C@H](C(=O)N[C@@H](Cc2ccccc2)C[C@H](O)[C@H](Cc2ccccc2)NC(=O)OCc2cncs2)C(C)C)cs1 [RITONAVIR] | Not Active | Not Active | Not Active | Not Active | Not Active | Not Active | – | Not Active | Not Active | Not Active | Not Active | Not Active | – | Not Active | Not Active | Not Active | – | – | – | –
15 | CC(C)(C)c1ccc(C(O)CCCN2CCC(C(O)(c3ccccc3)c3ccccc3)CC2)cc1 (centres undefined) [TERFENADINE] | Not Active | Not Active | Not Active | Not Active | Not Active | Not Active | – | Not Active | Not Active | – | Not Active | Not Active | Not Active | Not Active | Not Active | Not Active | – | – | 2680 | 892
16 | CC(=O)CC(c1ccccc1)c1c(O)c2ccccc2oc1=O (centres undefined) [WARFARIN] | Not Active | Not Active | Not Active | Not Active | Not Active | Not Active | Not Active | Not Active | Not Active | Not Active | Not Active | Not Active | – | Not Active | Not Active | Not Active | – | – | – | –
